Legend:
Type in all cases: functional
[1] = Murine tumor cell selectivity as zone unit differential between (C38) colon adenocarcinoma and ([…]) murine cell line in disk diffusion soft agar colony formation assay at 75 ug/disk.
[2] = Murine tumor cell selectivity as zone unit differential between ([…]) murine cell line and (CFU) normal bone marrow in disk diffusion soft agar colony formation assay at 75 ug/disk.
[3] = Human tumor selectivity was measured as zone unit differential between (H125) lung small cell carcinoma and (CEM) lymphocytic leukemia in disk diffusion soft agar colony formation assay at a concentration of 75 ug/disk
[4] = Murine tumor cell selectivity was measured as zone unit differential between (C38) colon adenocarcinoma and (CFU) normal bone marrow in disk diffusion soft agar colony formation assay at a concentration of 75 ug/disk
[5] = Murine tumor cell selectivity was measured as zone unit differential between ([…]) murine cell line and (CFU) normal bone marrow in disk diffusion soft agar colony formation assay at a concentration of 5 ug/disk
[6] = Murine tumor cell selectivity was measured as zone unit differential between (C38) colon adenocarcinoma and ([…]) murine cell line in disk diffusion soft agar colony formation assay at a concentration of 5 ug/disk
[7] = Murine tumor cell selectivity was measured as zone unit differential between (C38) colon adenocarcinoma and (CFU) normal bone marrow in disk diffusion soft agar colony formation assay at a concentration of 5 ug/disk
[8] = Human tumor selectivity was measured as zone unit differential between (H116) colon tumor and (CEM) lymphocytic leukemia in disk diffusion soft agar colony formation assay at a concentration of 5 ug/disk
[9] = Human tumor selectivity was measured as zone unit differential between (H125) lung small cell carcinoma and (CEM) lymphocytic leukemia in disk diffusion soft agar colony formation assay at a concentration of 5 ug/disk

Row | Structure (SMILES) | Selectivity [1] | Selectivity [2] | Selectivity [3] | Selectivity [4] | Selectivity [5] | Selectivity [6] | Selectivity [7] | Selectivity [8] | Selectivity [9]
1 | CC[C@H]1C=CCC[C@@]2(C[C@@H]3CC[C@@H]4[C@H](C(=O)OCCCCCC(=O)[O-])[C@]5(CCC[C@@H](C)O5)NC(=[N+]34)N2)O1.Cl [GUANIDINO ACID] | -200 | 200 | 150 | 0 |  |  |  |  | 
2 | CC[C@H]1C=CCC[C@@]2(C[C@@H]3CC[C@H]4[C@@H](C(=O)OCCCCCCCCCCCCCCCC(=O)N(CCCN)C[C@@H](O)CCN)[C@@]5(CCC[C@@H](C)O5)NC(=[N+]34)N2)O1.Cl.Cl.[Cl-] | -50 | 50 | 100 | 0 |  |  |  |  | 
3 | CC[C@H]1C=CCC[C@@]2(C[C@@H]3CC[C@@H]4[C@H](C(=O)OCCCCCCCCCCCC(=O)N(CCCN)C[C@@H](O)CCN)[C@]5(CCC[C@@H](C)O5)NC(=[N+]34)N2)O1.Cl.Cl.[Cl-] | 50 | 50 | 100 | 100 |  |  |  |  | 
4 | CC[C@H]1C=CCC[C@@]2(C[C@@H]3CC[C@@H]4[C@H](C(=O)OCC5CC5)[C@]5(CCC[C@@H](C)O5)NC(=[N+]34)N2)O1.[Cl-] |  |  |  |  | 100 | 200 | 300 | 100 | 150
5 | CC[C@H]1C=CCC[C@@]2(C[C@@H]3CC[C@@H]4[C@H](C(=O)OCc5ccccc5)[C@]5(CCC[C@@H](C)O5)NC(=[N+]34)N2)O1.[Cl-] |  |  |  |  | 50 | 50 | 100 | 50 | 150
6 | CC[C@H]1C=CCC[C@@]2(C[C@@H]3CC[C@@H]4[C@H](C(=O)OCCCCCCCC(=O)N(CCCN)C[C@@H](O)CCN)[C@]5(CCC[C@@H](C)O5)NC(=[N+]34)N2)O1.Cl.Cl.[Cl-] | -200 | 300 | -50 | 100 |  |  |  |  | 
7 | CC[C@H]1C=CCC[C@@]2(C[C@@H]3CC[C@@H]4[C@@H](C(=O)OC/C=C/c5ccccc5)[C@]5(CCC[C@@H](C)O5)NC(=[N+]34)N2)O1.[Cl-] |  |  |  |  | 50 | 50 | 100 | 100 | 200
8 | CC[C@H]1C=CCC[C@@]2(C[C@@H]3CC[C@@H]4[C@H](C(=O)OCCCCCCCCCCCCCCC(=O)[O-])[C@]5(CCC[C@@H](C)O5)NC(=[N+]34)N2)O1.Cl [GUANIDINO ACID] | 200 | -100 | 100 | 100 |  |  |  |  | 
9 | CC[C@H]1C=CCC[C@@]2(C[C@@H]3CC[C@@H]4[C@H](C(=O)OCCCCCCCCCCCC(=O)O)[C@]5(CCC[C@@H](C)O5)NC(=[N+]34)N2)O1.[Cl-] [GUANIDINO ACID] | 200 | 50 | 200 | 250 |  |  |  |  | 
10 | CC[C@H]1C=CCC[C@@]2(C[C@@H]3CC[C@@H]4[C@H](C(=O)OCCC(C)C)[C@]5(CCC[C@@H](C)O5)NC(=[N+]34)N2)O1.[Cl-] |  |  |  |  | -50 | 50 | 0 | 50 | 150
11 | CCOC(=O)[C@H]1[C@H]2CC[C@H]3C[C@@]4(CCC=C[C@H](CC)O4)NC(=[N+]32)N[C@@]12CCC[C@@H](C)O2.[Cl-] |  |  |  |  | 200 | -50 | 150 | 0 | 100
12 | CC[C@H]1C=CCC[C@@]2(C[C@@H]3CC[C@@H]4[C@H](C(=O)OCCCCCCCCCCCCCCCCCC(=O)N(CCCN)C[C@@H](O)CCN)[C@]5(CCC[C@@H](C)O5)NC(=[N+]34)N2)O1.Cl.Cl.[Cl-] | 50 | 100 | 150 | 150 |  |  |  |  | 
13 | CC[C@H]1C=CCC[C@@]2(C[C@@H]3CC[C@H]4[C@H](C(=O)OCCCCCCCCCCCCCCCC(=O)N(CCCN)C[C@@H](O)CCN)[C@@]5(CCC[C@@H](C)O5)NC(=[N+]34)N2)O1.Cl.Cl.[Cl-] | 0 | 50 | 50 | 50 |  |  |  |  | 
14 | CC[C@H]1C=CCC[C@@]2(C[C@@H]3CC[C@@H]4[C@H](C(=O)OCCCCCCCCCCCCCCCC(=O)O)[C@]5(CCC[C@@H](C)O5)NC(=[N+]34)N2)O1.[Cl-] [CRAMBESCIDIN 657] | 150 | 50 | 100 | 200 |  |  |  |  | 
15 | CC[C@H]1C=CCC[C@@]2(C[C@@H]3CC[C@@H]4[C@H](C(=O)OCCCCCC(=O)N(CCCN)C[C@@H](O)CCN)[C@]5(CCC[C@@H](C)O5)NC(=[N+]34)N2)O1.Cl.Cl.[Cl-] | -300 | 300 | -50 | 0 |  |  |  |  | 
16 | CC[C@H]1C=CCC[C@@]2(C[C@@H]3CC[C@@H]4[C@H](C(=O)OCCCCCCCCCC(=O)O)[C@]5(CCC[C@@H](C)O5)NC(=[N+]34)N2)O1.[Cl-] [GUANIDINO ACID] | 300 | -200 | 50 | 100 |  |  |  |  | 
17 | CC[C@H]1C=CCC[C@@]2(C[C@@H]3CC[C@@H]4[C@@H](C(=O)[O-])[C@]5(CCC[C@@H](C)O5)NC(=[N+]34)N2)O1.Cl | -100 | 300 | 50 | 200 |  |  |  |  | 
18 | CC[C@H]1C=CCC[C@@]2(C[C@@H]3CC[C@H]4[C@@H](C(=O)OCCCCCCCCCCCCCCCC(=O)O)[C@@]5(CCC[C@@H](C)O5)NC(=[N+]34)N2)O1.[Cl-] | 100 | -50 | 150 | 50 |  |  |  |  | 
19 | CC[C@H]1C=CCC[C@@]2(C[C@@H]3CC[C@@H]4[C@H](C(=O)OCCCCCCCC(=O)O)[C@]5(CCC[C@@H](C)O5)NC(=[N+]34)N2)O1.[Cl-] [GUANIDINO ACID] | 100 | 100 | -50 | 200 |  |  |  |  | 
20 | CC[C@H]1C=CCC[C@@]2(C[C@@H]3CC[C@@H]4[C@H](C(=O)OCCCCCCCCCCCCCCC(=O)N(CCCN)C[C@@H](O)CCN)[C@]5(CCC[C@@H](C)O5)NC(=[N+]34)N2)O1.Cl.Cl.[Cl-] | 50 | 100 | 400 | 150 |  |  |  |  | 
21 | CC[C@H]1C=CCC[C@@]2(C[C@@H]3CC[C@@H]4[C@H](C(=O)OCCCCCCCCCC(=O)N(CCCN)C[C@@H](O)CCN)[C@]5(CCC[C@@H](C)O5)NC(=[N+]34)N2)O1.Cl.Cl.[Cl-] | 0 | 300 | -50 | 100 |  |  |  |  | 
22 | CC[C@H]1C=CCC[C@@]2(C[C@@H]3CC[C@@H]4[C@H](C(=O)OCCCCCCCCCCCCCCCC(=O)N(CCCN)C[C@@H](O)CCN)[C@]5(CCC[C@@H](C)O5)NC(=N2)N34)O1.Cl.Cl.Cl [CRAMBESCIDIN 800 TRIHYDROCHLORIDE] | -200 | 150 | 50 | -50 |  |  |  |  | 
23 | CC[C@H]1C=CCC[C@@]2(C[C@@H]3CC[C@@H]4[C@H](C(=O)OCCCCCCCCCCCCCCCCCC(=O)O)[C@]5(CCC[C@@H](C)O5)NC(=[N+]34)N2)O1.[Cl-] [GUANIDINO ACID] | 100 | 0 | 150 | 100 |  |  |  |  | 
